# According to ChEMBL document CHEMBL5614422, “Design, synthesis and biological evaluation of N-salicyloyl tryptamine derivatives as multifunctional neuroprotectants for the treatment of ischemic stroke” (Eur J Med Chem, 2024):
# What was measured:
# [1] = test system: HT-22; assay: Anti-apoptotic activity in OGD/R mouse HT-22 cells assessed as early apoptotic cells at 1 uM by annexin V-FITC and PI staining based flow cytometry analysis (reference value: 9.51%); format: functional
# [2] = test system: HT-22; assay: Anti-apoptotic activity in OGD/R mouse HT-22 cells assessed as late apoptotic cells at 10 uM by annexin V-FITC and PI staining based flow cytometry analysis (reference value: 7.26%); format: functional
# [3] = test system: HT-22; assay: Antioxidant activity against OGD/R induced damage in mouse HT-22 cells assessed as decrease in proportion of mitochondrial depolarized cells at 1 uM by JC-1 fluorescence based flow cytometry analysis (reference value: 91.7%); format: functional; design: scale not given: the % may be the effect or the level left
# [4] = test system: HT-22; assay: Neuroprotective activity against OGD/R induced cell damage in mouse HT-22 cells assessed as cell viability at 10 uM measured after 24 hrs by MTT assay (reference value: 69.01 +/-2.90%); format: functional; settings: read-out: Activity
# [5] = test system: HT-22; assay: Anti-apoptotic activity in OGD/R mouse HT-22 cells assessed as viable cells at 5 uM by annexin V-FITC and PI staining based flow cytometry analysis (reference value: 83.09%); format: functional; settings: read-out: Activity
# [6] = Aqueous solubility of the compound incubated for 72 hrs under shaking condition by HPLC analysis; format: physicochemical
# [7] = Drug concentration in male Sprague-Dawley rat Cerebrospinal fluid at 60 mg/kg, ip measured after 4 hrs by LC-MS analysis; format: ADME, organism-based; settings: read-out: Ct
# [8] = Drug concentration in male Sprague-Dawley rat Cerebrospinal fluid at 60 mg/kg, ip measured after 2 hrs by LC-MS analysis; format: ADME, organism-based; settings: read-out: Ct
# [9] = test system: HT-22; assay: Anti-apoptotic activity in OGD/R mouse HT-22 cells assessed as early apoptotic cells at 10 uM by annexin V-FITC and PI staining based flow cytometry analysis (reference value: 9.51%); format: functional
# [10] = Half life in 12 hrs fasted male Sprague-Dawley rat at 50 mg/kg measured upto 48 hrs by LC-MS/MS analysis; format: ADME, organism-based; settings: in vivo
# [11] = Drug concentration in male Sprague-Dawley rat plasma at 60 mg/kg, ip measured after 0.5 hrs by LC-MS analysis; format: ADME, organism-based
# [12] = test system: HT-22; assay: Anti-apoptotic activity in OGD/R mouse HT-22 cells assessed as viable cells at 1 uM by annexin V-FITC and PI staining based flow cytometry analysis (reference value: 83.09%); format: functional; settings: read-out: Activity
# [13] = Drug concentration in male Sprague-Dawley rat Cerebrospinal fluid at 60 mg/kg, ip measured after 0.5 hrs by LC-MS analysis; format: ADME, organism-based; settings: read-out: Ct
# [14] = Permeability of the compound by PAMPA method; format: ADME; settings: read-out: permeability
# [15] = test system: HT-22; assay: Anti-apoptotic activity in OGD/R mouse HT-22 cells assessed as necrotic cells at 1 uM by annexin V-FITC and PI staining based flow cytometry analysis (reference value: 0.14%); format: functional
# [16] = test system: HT-22; assay: Anti-apoptotic activity in OGD/R mouse HT-22 cells assessed as necrotic cells at 10 uM by annexin V-FITC and PI staining based flow cytometry analysis (reference value: 0.14%); format: functional
# [17] = test system: HT-22; assay: Anti-apoptotic activity in OGD/R mouse HT-22 cells assessed as late apoptotic cells at 1 uM by annexin V-FITC and PI staining based flow cytometry analysis (reference value: 7.26%); format: functional
# [18] = Drug concentration in male Sprague-Dawley rat plasma at 60 mg/kg, ip measured after 2 hrs by LC-MS analysis; format: ADME, organism-based
# [19] = test system: HT-22; assay: Anti-apoptotic activity in OGD/R mouse HT-22 cells assessed as early apoptotic cells at 5 uM by annexin V-FITC and PI staining based flow cytometry analysis (reference value: 9.51%); format: functional
# [20] = Cytotoxicity against mouse BV-2 cells assessed as cell viability incubated for 24 hrs by CCK-8 method; format: toxicity, cell-based
# [21] = test system: HT-22; assay: Anti-apoptotic activity in OGD/R mouse HT-22 cells assessed as late apoptotic cells at 5 uM by annexin V-FITC and PI staining based flow cytometry analysis (reference value: 7.26%); format: functional
# [22] = test system: HT-22; assay: Anti-apoptotic activity in OGD/R mouse HT-22 cells assessed as viable cells at 10 uM by annexin V-FITC and PI staining based flow cytometry analysis (reference value: 83.09%); format: functional; settings: read-out: Activity
# [23] = Cytotoxicity against mouse HT-22 cells assessed as cell viability incubated for 24 hrs by CCK-8 method; format: toxicity, cell-based
# [24] = Drug concentration in male Sprague-Dawley rat plasma at 60 mg/kg, ip measured after 4 hrs by LC-MS analysis; format: ADME, organism-based
# [25] = test system: HT-22; assay: Antioxidant activity against OGD/R induced damage in mouse HT-22 cells assessed as decrease in proportion of mitochondrial depolarized cells at 10 uM by JC-1 fluorescence based flow cytometry analysis (reference value: 91.7%); format: functional; design: scale not given: the % may be the effect or the level left
# [26] = test system: HT-22; assay: Antioxidant activity against OGD/R induced damage in mouse HT-22 cells assessed as decrease in proportion of mitochondrial depolarized cells at 5 uM by JC-1 fluorescence based flow cytometry analysis (reference value: 91.7%); format: functional; design: scale not given: the % may be the effect or the level left
# [27] = test system: HT-22; assay: Anti-apoptotic activity in OGD/R mouse HT-22 cells assessed as necrotic cells at 5 uM by annexin V-FITC and PI staining based flow cytometry analysis (reference value: 0.14%); format: functional
# [28] = Antioxidant activity assessed as trolox equivalent of ORAC radical scavenging activity at 0.125 to 2 uM by AAPH based automatic microplate reader analysis; format: functional; settings: dose 0.125-2 µM
# [29] = Acute toxicity in Kunming mouse assessed as effect on kidney at 500 mg/kg, ip measured after 14 days by H and E staining based analysis; format: organism-based; settings: in vivo, 336 h, time 14 day
# [30] = Acute toxicity in Kunming mouse assessed as effect on body weight at 500 mg/kg, ip measured after 14 days; format: organism-based; settings: in vivo, 336 h, time 14 day
# [31] = Acute toxicity in Kunming mouse assessed as effect on lung at 500 mg/kg, ip measured after 14 days by H and E staining based analysis; format: organism-based; settings: in vivo, 336 h, time 14 day
# [32] = Acute toxicity in Kunming mouse assessed as effect on heart at 500 mg/kg, ip measured after 14 days by H and E staining based analysis; format: organism-based; settings: in vivo, 336 h, time 14 day
# [33] = Acute toxicity in Kunming mouse assessed as effect on liver at 500 mg/kg, ip measured 14 days by H and E staining based analysis; format: organism-based; settings: in vivo, 336 h, time 14 day
# [34] = Acute toxicity in Kunming mouse assessed as effect on spleen at 500 mg/kg, ip measured after 14 days by H and E staining based analysis; format: organism-based; settings: in vivo, 336 h, time 14 day
compound,measurement,setting,value
Cc1ccc(C(=O)NCCc2c[nH]c3ccc(N(C)C)cc23)c(O)c1,Activity,[1],5.95%
same,Activity,[2],3.37%
same,Activity,[3],81.7%
same,viability at 10 µM,[4],92.7%
same,viability at 5 µM,[5],93.7%
same,solubility thermodynamic at 72 h,[6],40 µg/mL
same,concentration at 4 h,[7],20 ng/mL
same,concentration at 2 h,[8],30 ng/mL
same,Activity,[9],2.01%
same,half-life,[10],4.56 h
same,concentration at 0.5 h,[11],4120 ng/mL
same,viability at 1 µM,[12],88%
same,concentration at 0.5 h,[13],53 ng/mL
same,Papp,[14],8.29 ×10⁻⁶ cm/s
same,Activity,[15],0.15%
same,Activity,[16],1.06%
same,Activity,[17],5.84%
same,concentration at 2 h,[18],633 ng/mL
same,Activity,[19],2.34%
same,IC50 at 24 h,[20],> 100 µM
same,Activity,[21],3.67%
same,viability at 10 µM,[22],93.6%
same,IC50 at 24 h,[23],> 100 µM
same,concentration at 4 h,[24],186 ng/mL
same,Activity,[25],49.2%
same,Activity,[26],54%
same,Activity,[27],0.33%
CN1CCN(C2=Nc3cc(Cl)ccc3Nc3ccccc32)CC1 [CLOZAPINE],Papp,[14],8.34 ×10⁻⁶ cm/s
CC1=NN(c2ccccc2)C(=O)C1 [EDARAVONE],Activity,[2],5.39%
same,viability at 10 µM,[4],80.9%
same,Activity,[28],2.8
same,solubility thermodynamic at 72 h,[6],1840 µg/mL
same,Activity,[9],1.78%
same,Activity,[16],0.72%
same,viability at 10 µM,[22],92.1%
same,Activity,[25],67.9%
Cc1ccc(C(=O)NCCc2c[nH]c3ccccc23)c(O)c1,viability at 10 µM,[4],88.8%
same,Activity,[28],4.4
same,IC50 at 24 h,[20],> 100 µM
same,IC50 at 24 h,[23],> 100 µM
same,Activity,[25],74%
Cc1ccc(C(=O)NCCc2c[nH]c3ccc(C)cc23)c(O)c1,viability at 10 µM,[4],89.5%
same,Activity,[28],3.1
same,IC50 at 24 h,[20],79.3 µM
same,IC50 at 24 h,[23],> 100 µM
Cc1ccc(C(=O)NCCc2c[nH]c3ccc(F)cc23)c(O)c1,viability at 10 µM,[4],83.9%
same,Activity,[28],3.1
same,IC50 at 24 h,[20],> 100 µM
same,IC50 at 24 h,[23],> 100 µM
COc1ccc(O)c(C(=O)NCCc2c[nH]c3ccccc23)c1,Activity,[2],5.18%
same,viability at 10 µM,[4],88.5%
same,Activity,[9],5.54%
same,Activity,[16],0.16%
same,IC50 at 24 h,[20],51 µM
same,viability at 10 µM,[22],89.1%
same,IC50 at 24 h,[23],> 100 µM
COc1cc2[nH]cc(CCNC(=O)c3ccc(C)cc3O)c2cc1OC,viability at 10 µM,[4],75%
same,IC50 at 24 h,[20],26.5 µM
same,IC50 at 24 h,[23],54.6 µM
COc1cccc2c(CCNC(=O)c3ccc(C)cc3O)c[nH]c12,viability at 10 µM,[4],91.5%
same,Activity,[28],2
same,IC50 at 24 h,[20],90.9 µM
same,IC50 at 24 h,[23],73.2 µM
Cc1ccc(C(=O)NCCc2c[nH]c3cccc(Br)c23)c(O)c1,viability at 10 µM,[4],73.1%
same,IC50 at 24 h,[20],> 100 µM
same,IC50 at 24 h,[23],> 100 µM
COc1cc(C)cc2[nH]cc(CCNC(=O)c3ccc(C)cc3O)c12,viability at 10 µM,[4],85.4%
same,IC50 at 24 h,[20],52.9 µM
same,IC50 at 24 h,[23],73 µM
Cc1ccc(C(=O)NCCc2c[nH]c3cc(F)cc(F)c23)c(O)c1,viability at 10 µM,[4],89.2%
same,IC50 at 24 h,[20],32.7 µM
same,IC50 at 24 h,[23],61.9 µM
Cc1ccc(O)c(C(=O)NCCc2c[nH]c3ccccc23)c1,viability at 10 µM,[4],76.5%
same,IC50 at 24 h,[20],50.2 µM
same,IC50 at 24 h,[23],51.1 µM
Cc1ccc(C(=O)NCCc2c[nH]c3ccc(N(C)C)cc23)c(O)c1.Cl,Activity,[29],Non-Toxic
same,Activity,[30],Non-Toxic
same,solubility thermodynamic at 72 h,[6],2300 µg/mL
same,half-life,[10],3.96 h
same,Activity,[31],Non-Toxic
same,Activity,[32],Non-Toxic
same,Activity,[33],Non-Toxic
same,Activity,[34],Non-Toxic
O=C(NCCc1c[nH]c2ccccc12)c1ccccc1O,viability at 10 µM,[4],83%
same,IC50 at 24 h,[20],55.1 µM
same,IC50 at 24 h,[23],> 100 µM
O=C(NCCc1c[nH]c2ccccc12)c1cccc(Cl)c1O,viability at 10 µM,[4],87.9%
same,IC50 at 24 h,[20],50.4 µM
same,IC50 at 24 h,[23],52 µM
CNc1cccc2c(CCNC(=O)c3ccc(C)cc3O)c[nH]c12,viability at 10 µM,[4],80.8%
same,IC50 at 24 h,[20],28.9 µM
same,IC50 at 24 h,[23],> 100 µM
Cc1ccc(C(=O)NCCc2c[nH]c3cc(C)ccc23)c(O)c1,viability at 10 µM,[4],60.2%
same,IC50 at 24 h,[20],> 100 µM
same,IC50 at 24 h,[23],> 100 µM
COc1ccc2[nH]cc(CCNC(=O)c3ccc(C)cc3O)c2c1,viability at 10 µM,[4],74%
same,IC50 at 24 h,[20],> 100 µM
same,IC50 at 24 h,[23],> 100 µM
COc1cc(Cl)c2c(CCNC(=O)c3ccc(C)cc3O)c[nH]c2c1,viability at 10 µM,[4],60.1%
same,IC50 at 24 h,[20],> 100 µM
same,IC50 at 24 h,[23],> 100 µM
Cc1ccc(C(=O)NCCc2c[nH]c3cccc(F)c23)c(O)c1,viability at 10 µM,[4],94.5%
same,Activity,[28],3.7
same,IC50 at 24 h,[20],81.7 µM
same,IC50 at 24 h,[23],84.6 µM
